Measured values: patent US9173400B2, “Anthranilamide arthropodicide treatment” (E I DU PONT DE NEMOURS AND COMPANY, priority 2001, dated 2015)

melting point [°C] | SMILES
215 to 217 | CNC(=O)c1cc(Cl)cc(C)c1NC(=O)c1cc(OCC(F)(F)F)nn1-c1ncccc1Cl
205 to 207 | CNC(=O)c1cc(Cl)cc(C)c1NC(=O)c1cc(Cl)nn1-c1ncccc1Cl
200 to 204 | CCn1nc(C(F)(F)F)cc1NC(=O)c1c(C)cccc1C(=O)NC(C)C [Example 1, 2-[1-Ethyl-3-trifluoromethylpyrazol-5-ylcarbamoyl]-3-methyl-N-(1-methylethyl)benzamide]
233 to 235 | Cc1cccc(C(=O)NC(C)C)c1NC(=O)c1cc(C(F)(F)F)nn1-c1ncccc1C(F)(F)F [Example 3, N-[2-Methyl-6-[[(1-methylethyl)amino]carbonyl]phenyl]-3-(trifluoromethyl)-1-[3-(trifluoromethyl)-2-pyridinyl]-1H-pyrazole-5-carboxamide]
